Data as given in ChEMBL document CHEMBL6103573, “Discovery of novel thienopyridine indole derivatives as inhibitors of tubulin polymerization targeting the colchicine-binding site with potent anticancer activities” (Eur J Med Chem, 2025).
Active and inactive are the calls of the source. No cut-off for these calls is given here.

Experiments:
MGC-803 [1] = test: Induction of cell cycle arrest in human MGC-803 cells assessed as accumulation of cells at G2/M phase at 2 nmol/L incubated for 24 hrs by RNase A/propidium iodide staining based flow cytometric analysis relative to control; type: functional
MGC-803 [2] = test: Induction of apoptosis in human MGC-803 cells assessed as early apoptotic cells at 0.5 nmol/L incubated for 48 hrs by Annexin V-FITC/propidium iodide staining based flow cytometry analysis (reference value: 0.83 %); type: functional
HGC-27 [3] = test: Induction of apoptosis in human HGC-27 cells assessed as total apoptotic rate at 2 nmol/L incubated for 48 hrs by Annexin V-FITC/propidium iodide staining based flow cytometry analysis relative to control; type: functional
HGC-27 [4] = test: Inhibition of colony formation in human HGC-27 cells at 0.5 nmol/L incubated for 7 days by crystal violet staining based colony formation assay relative to control; type: functional; settings: HGC-27, 168 h, time 7 day
MGC-803 [5] = test: Induction of apoptosis in human MGC-803 cells assessed as increase in nuclei brightness at 0.25 to 2.0 nmol/L incubated for 48 hrs by DAPI staining based analysis; type: functional, cell-based; settings: dose 0.25-2 nmol/L
[6] = molecular target: Tubulin beta (Homo sapiens) (UniProt P68371+Q9H4B7+Q13509+P04350+Q3ZCM7+P07437+Q13885+Q9BVA1+Q9BUF5+A6NNZ2); test: Competitive binding affinity to beta-tubulin colchicine binding site in human HGC-27 cells assessed as reduction in EBI-beat tubulin adduct to beta-tubulin ratio preincubated for 2 hrs followed by EBI addition and measured after 2 hrs by Western blotting analysis; type: cell-based; settings: dose 0.1-1 µmol/L, time 4.0 hrs
HGC-27 [7] = test: Induction of apoptosis in human HGC-27 cells assessed as cell contraction at 0.25 to 2.0 nmol/L incubated for 48 hrs by bright field microscopic analysis; type: functional, cell-based; settings: dose 0.25-2 nmol/L
MGC-803 [8] = test: Induction of apoptosis in human MGC-803 cells assessed as increase in cleaved Caspase-7 expression at 0.25 to 2.0 nmol/L incubated for 48 hrs by Western blotting analysis; type: functional, cell-based; settings: dose 0.25-2 nmol/L
NCI-N87 = test: Antiproliferative activity against human NCI-N87 cells assessed as inhibition of cell proliferation incubated for 48 hrs by MTT assay; type: functional, cell-based; settings: NCI-N87, 48 h
MGC-803 [9] = test: Antitumor activity against human MGC-803 cells xenografted in female BALB/c-nu nude mouse assessed as tumor inhibition rate at 5 mg/kg, po administrated every other day for 11 times and measured after 21 days relative to control; type: functional; settings: MGC-803, 504 h, time 21 day, read-out: TGI
MGC-803 [10] = test: Induction of apoptosis in human MGC-803 cells incubated for 48 hrs by Annexin V-FITC/propidium iodide staining based flow cytometry analysis; type: functional, cell-based; settings: dose 0.25-2 nmol/L
SGC-7901 = test: Antiproliferative activity against human SGC-7901 cells assessed as inhibition of cell proliferation incubated for 48 hrs by MTT assay; type: functional, cell-based; settings: SGC-7901, 48 h
MGC-803 [11] = test: Anti-migratory activity against human MGC-803 cells assessed as reduction in wound healing area measured after 24 hrs by wound healing assay; type: functional, cell-based; settings: dose 0.5-1 nmol/L
Tubulin (Homo sapiens) [12] = molecular target: T1, Tubulin (Homo sapiens) (UniProt P68371+Q9H4B7+P0DPH7+P68366+Q13509+Q71U36+P04350+Q3ZCM7+P07437+P68363+Q9BQE3+Q6PEY2+Q13885+Q9BVA1+Q9BUF5); test: Disruption of microtubule network in human HGC-27 cells assessed as reduction in filamentous microtubule structure formation at 0.25 to 2.0 nmol/L incubated for 24 hrs by DAPI staining based fluorescence microscopic analysis; type: cell-based; settings: dose 0.25-2 nmol/L
MGC-803 [13] = test: Induction of apoptosis in human MGC-803 cells assessed as downregulation of Bcl-2 expression incubated for 48 hrs by Western blotting analysis; type: functional, cell-based; settings: dose 0.25-2 nmol/L
HGC-27 [14] = test: Induction of apoptosis in human HGC-27 cells assessed as early apoptotic cells at 0.5 nmol/L incubated for 48 hrs by Annexin V-FITC/propidium iodide staining based flow cytometry analysis (reference value: 2.04 %); type: functional
MGC-803 [15] = test: Induction of cell cycle arrest at G2 phase in human MGC-803 cells assessed as downregulation of Cyclin B1 level at 0.25 to 2.0 nmol/L measured after 48 hrs by Western blot analysis; type: functional, cell-based; settings: dose 0.25-2 nmol/L
Tubulin = test: Inhibition of tubulin (unknown origin) polymerization assessed as decrease in fluorescence intensity in presence of GTP by fluorescence microplate reader; type: protein-complex assay, Homo sapiens
MGC-803 [16] = test: Induction of cell cycle arrest at G2 phase in human MGC-803 cells assessed as increase in p-Histone H3 level at 0.25 to 2.0 nmol/L measured after 48 hrs by Western blot analysis; type: functional, cell-based; settings: dose 0.25-2 nmol/L
HGC-27 [17] = test: Induction of cell cycle arrest in human HGC-27 cells assessed as downregulation of Cdc25c level measured after 48 hrs by Western blot analysis; type: functional, cell-based; settings: dose 0.25-2 nmol/L
HGC-27 [18] = test: Induction of apoptosis in human HGC-27 cells assessed as early apoptotic cells at 2.0 nmol/L incubated for 48 hrs by Annexin V-FITC/propidium iodide staining based flow cytometry analysis (reference value: 2.04 %); type: functional
Tubulin (Homo sapiens) [19] = molecular target: T1, Tubulin (Homo sapiens); test: Disruption of microtubule network in human HGC-27 cells assessed as irregular cellular morphology at 0.25 to 2.0 nmol/L incubated for 24 hrs by DAPI staining based fluorescence microscopic analysis; type: cell-based; settings: dose 0.25-2 nmol/L
MGC-803 [20] = test: Antitumor activity against human MGC-803 cells xenografted in female BALB/c-nu nude mouse assessed as reduction in Ki67 expression in tumor at 5 mg/kg, po administrated […] for 11 times and measured after 21 days by immunohistochemical analysis; type: functional, organism-based; settings: time 21.0 day
MGC-803 [21] = test: Antiproliferative activity against human MGC-803 cells assessed as survival rate at 2 nmol/L measured after 6 hrs by MTT assay relative to control; type: functional; settings: read-out: Survival
MGC-803 [22] = test: Induction of apoptosis in human MGC-803 cells assessed as late apoptotic cells at 2.0 nmol/L incubated for 48 hrs by Annexin V-FITC/propidium iodide staining based flow cytometry analysis (reference value: 2.22 %); type: functional
MCF7 = test: Antiproliferative activity against human MCF7 cells assessed as inhibition of cell proliferation incubated for 48 hrs by MTT assay; type: functional, cell-based; settings: MCF7, 48 h
MGC-803 [23] = test: Induction of apoptosis in human MGC-803 cells assessed as early apoptotic cells at 1.0 nmol/L incubated for 48 hrs by Annexin V-FITC/propidium iodide staining based flow cytometry analysis (reference value: 0.83 %); type: functional
HGC-27 [24] = test: Induction of apoptosis in human HGC-27 cells assessed as downregulation of Bcl-2 expression incubated for 48 hrs by Western blotting analysis; type: functional, cell-based; settings: dose 0.25-2 nmol/L
HCT-116 = test: Antiproliferative activity against human HCT-116 cells assessed as inhibition of cell proliferation incubated for 48 hrs by MTT assay; type: functional, cell-based; settings: HCT-116, 48 h
HGC-27 [25] = test: Induction of cell cycle arrest at G2 phase in human HGC-27 cells assessed as increase in p-Histone H3 level at 0.25 to 2.0 nmol/L measured after 48 hrs by Western blot analysis; type: functional, cell-based; settings: dose 0.25-2 nmol/L
MGC-803 [26] = test: Antitumor activity against human MGC-803 cells xenografted in female BALB/c-nu nude mouse assessed as increase in p-Histone H3 level in tumor at 5 mg/kg, po administrated every other day for 11 times and measured after 21 days by immunohistochemical analysis; type: functional, organism-based; settings: time 21.0 day
Huh-7 = test: Antiproliferative activity against human Huh-7 cells assessed as inhibition of cell proliferation incubated for 48 hrs by MTT assay; type: functional, cell-based; settings: Huh-7, 48 h

Compound: CN(c1ccc2c(ccn2C)c1)c1nc(N2CCCC2)nc2sccc12
- Activity (MGC-803 [1]): 28.5%
- Activity (MGC-803 [2]): 3.33%
- Activity (HGC-27 [3]): 20%
- inhibition at 0.0005 µM (HGC-27 [4]): > 90%
- Activity (MGC-803 [5]): Active
- Activity [6]: Dose-dependent-effect
- Activity (HGC-27 [7]): Active
- Activity (MGC-803 [8]): Active
- IC50 (NCI-N87): 2.14 nM
- inhibition in vivo at 5 mg/kg (MGC-803 [9]): 45.8%
- Activity (MGC-803 [10]): Dose-dependent-effect
- IC50 (SGC-7901): 2.01 nM
- Activity (MGC-803 [11]): Dose-dependent-effect
- Activity (Tubulin (Homo sapiens) [12]): Active
- Activity (MGC-803 [13]): Dose-dependent-effect
- Activity (HGC-27 [14]): 4.64%
- Activity (MGC-803 [15]): Active
- IC50 (Tubulin): 2510 nM
- Activity (MGC-803 [16]): Active
- Activity (HGC-27 [17]): Dose-dependent-effect
- Activity (HGC-27 [18]): 14.4%
- Activity (Tubulin (Homo sapiens) [19]): Active
- Activity (MGC-803 [20]): Active
- viability at 0.002 µM (MGC-803 [21]): 86%
- Activity (MGC-803 [22]): 8.06%
- IC50 (MCF7): 1.85 nM
- Activity (MGC-803 [23]): 16.83%
- Activity (HGC-27 [24]): Dose-dependent-effect
- IC50 (HCT-116): 2.89 nM
- Activity (HGC-27 [25]): Active
- Activity (MGC-803 [26]): Active
- IC50 (Huh-7): 2.09 nM
